How the values were obtained:
Experiment in all cases: relative viability (nuclei count vs DMSO), 5 days (fraction); higher = more cells survive
AZD6482 + Navitoclax = compound: Cc1cc([C@@H](C)Nc2ccccc2C(=O)O)c2nc(N3CCOCC3)cc(=O)n2c1 [AZD6482] + CC1(C)CCC(c2ccc(Cl)cc2)=C(CN2CCN(c3ccc(C(=O)NS(=O)(=O)c4ccc(N[C@H](CCN5CCOCC5)CSc5ccccc5)c(S(=O)(=O)C(F)(F)F)c4)cc3)CC2)C1 [Navitoclax] (partner 0.5 µM)
Summary of the method: (§1)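 One day after seeding in 1536-well plates, lung cancer cell lines were dosed by pin tool. Dosing was either single-drug or a fixed anchor-drug dose plus five library-drug doses (not always all listed) in √10 steps. After 5 days, nuclei were stained in one fix-and-stain step and counted on 4× images, and relative viability is the nuclei count of treated wells over that of vehicle wells, given as the median of duplicate plates.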

[1] = compound: COc1cc2nc(N3CCCN(C)CC3)nc(NC3CCN(Cc4ccccc4)CC3)c2cc1OC + CC(=O)Nc1cccc(-n2c(=O)n(C3CC3)c(=O)c3c(Nc4ccc(I)cc4F)n(C)c(=O)c(C)c32)c1 [Trametinib] (partner 0.02 µM)
Summary of the method: as §1

[2] = compound: COc1cc2nc(N3CCCN(C)CC3)nc(NC3CCN(Cc4ccccc4)CC3)c2cc1OC + N=C(N)NC(=N)NCCc1ccccc1 [Phenformin] (partner 250 µM)
Summary of the method: as §1

[3] = compound: COc1cc2nc(N3CCCN(C)CC3)nc(NC3CCN(Cc4ccccc4)CC3)c2cc1OC + Nc1ncn([C@H]2C[C@H](O)[C@@H](CO)O2)c(=O)n1 [Decitabine] (partner 2 µM)
Summary of the method: as §1

| Cell Line | relative viability (AZD6482 + Navitoclax; first compound 0.08 µM) | relative viability (AZD6482 + Navitoclax; first compound 0.253 µM) | relative viability (AZD6482 + Navitoclax; first compound 0.8 µM) | relative viability (AZD6482 + Navitoclax; first compound 2.53 µM) | relative viability (AZD6482 + Navitoclax; first compound 8 µM) | relative viability ([1]; first compound 0.2 µM) | relative viability ([1]; first compound 0.6325 µM) | relative viability ([1]; first compound 2 µM) | relative viability ([1]; first compound 6.325 µM) | relative viability ([2]; first compound 0.2 µM) | relative viability ([2]; first compound 0.6325 µM) | relative viability ([2]; first compound 2 µM) | relative viability ([2]; first compound 6.325 µM) | relative viability ([3]; first compound 0.2 µM) | relative viability ([3]; first compound 0.6325 µM) | relative viability ([3]; first compound 2 µM) | relative viability ([3]; first compound 6.325 µM) |
| --- | --- | --- | --- | --- | --- | --- | --- | --- | --- | --- | --- | --- | --- | --- | --- | --- | --- |
| NCI-H1944 | 1.02 | 0.953 | 1.03 | 0.887 | 0.821 | 0.437 | 0.423 | 0.379 | 0.414 | 0.21 | 0.221 | 0.201 | 0.203 | 0.465 | 0.505 | 0.391 | 0.455 |
| NCI-H1793 | 0.29 | 0.23 | 0.251 |  | 0.312 | 0.374 | 0.39 | 0.412 | 0.373 | 0.372 | 0.385 | 0.404 | 0.364 | 0.499 | 0.476 | 0.465 | 0.571 |
| NCI-H520 | 0.839 | 0.785 | 0.703 |  | 0.344 | 0.744 | 0.637 | 0.674 | 0.176 | 0.558 | 0.7 | 0.499 | 0.252 | 0.495 | 0.454 | 0.534 | 0.214 |
| NCI-H460 | 0.968 | 1.08 | 1.07 | 0.859 | 0.694 | 0.13 | 0.16 | 0.107 | 0.0898 | 0.501 | 0.492 | 0.478 | 0.484 | 0.484 | 0.449 | 0.431 | 0.389 |
| EKVX | 0.817 | 0.868 | 0.786 | 0.535 | 0.57 | 0.316 | 0.393 | 0.319 | 0.278 | 0.233 | 0.235 | 0.233 | 0.24 | 0.329 | 0.318 | 0.343 | 0.27 |
| EPLC-272H | 0.943 |  | 0.994 | 0.896 | 0.775 | 0.292 | 0.333 | 0.268 | 0.278 | 0.353 | 0.335 | 0.318 | 0.348 | 0.392 | 0.387 | 0.341 | 0.38 |
| NCI-H1395 | 0.831 | 0.822 | 0.803 | 0.542 | 0.733 | 1.01 | 1.03 | 1.13 | 0.806 | 0.461 | 0.451 | 0.433 | 0.397 | 0.712 | 0.71 | 0.743 | 0.706 |
| NCI-H2126 | 0.744 | 0.671 | 0.727 | 0.571 | 0.543 | 0.532 | 0.572 | 0.513 | 0.508 | 0.493 | 0.601 | 0.538 | 0.472 | 0.577 | 0.55 | 0.561 | 0.567 |
| LXF-289 | 0.974 | 0.955 | 0.997 | 0.954 | 0.854 | 0.651 | 0.701 | 0.634 | 0.625 | 0.511 | 0.507 | 0.527 | 0.525 | 0.396 | 0.365 | 0.418 | 0.393 |
| NCI-H2009 | 1.11 | 1.14 | 1.23 | 0.757 | 0.96 | 0.277 | 0.305 | 0.323 | 0.289 | 0.471 | 0.447 | 0.56 | 0.385 | 0.396 | 0.392 | 0.43 | 0.375 |
| NCI-H2405 | 0.488 |  | 0.778 | 0.489 | 0.509 | 0.652 | 0.604 | 0.676 | 0.591 | 0.425 | 0.444 | 0.421 | 0.371 | 0.706 | 0.745 | 0.784 | 0.729 |
| NCI-H1755 | 0.833 | 0.737 | 0.682 | 0.43 | 0.498 | 0.797 | 0.75 | 0.713 | 0.746 | 0.604 | 0.628 | 0.58 | 0.574 | 0.657 | 0.669 | 0.689 | 0.663 |
| HCC-78 | 0.663 | 0.438 | 0.433 | 0.203 | 0.306 | 0.734 | 0.695 | 0.723 | 0.685 | 0.73 | 0.793 | 0.675 | 0.777 | 0.642 | 0.683 | 0.729 | 0.712 |
| LOU-NH91 | 0.579 | 0.651 | 0.659 | 0.441 | 0.518 | 0.801 | 0.778 | 0.781 | 0.811 | 0.643 | 0.803 | 0.506 | 0.674 | 0.779 | 0.845 | 0.853 | 0.808 |
| NCI-H3122 | 0.96 | 1.01 | 1.07 | 0.894 | 0.97 | 0.239 | 0.199 | 0.197 | 0.208 | 0.403 | 0.363 | 0.401 | 0.331 | 0.398 | 0.451 | 0.461 | 0.363 |
| HCC-827 | 0.938 | 1.01 | 1.07 | 0.899 | 0.898 | 0.533 | 0.558 | 0.518 | 0.542 | 0.405 | 0.431 | 0.294 | 0.402 | 0.172 | 0.315 | 0.221 | 0.326 |

Source: the supplement of paper PMC10307832
